The text below walks through data of ChEMBL document CHEMBL5113441, “Exploration of 4-(1H-indol-3-yl)cyclohex-3-en-1-amine analogues as HDAC inhibitors: Design, synthesis, biological evaluation and modelling studies” (Bioorg Med Chem Lett, 2022).

Format in all cases: functional, cell-based
For assay [1], the system named is SW480. Description: Antiproliferative activity against human SW480 cells measured after 72 hrs. The settings on record: SW480, 72 h.
Assay [2] concerns HCT-116. As to the kind of experiment: Antiproliferative activity against human HCT-116 cells measured after 72 hrs. The note with it: HCT-116, 72 h.
Assay [3] relates to MCF7. As to the kind of experiment: Antiproliferative activity against human MCF7 cells measured after 72 hrs. The settings on record: MCF7, 72 h.
The test system of assay [4] is A549. Description: Antiproliferative activity against human A549 cells measured after 72 hrs. The settings on record: A549, 72 h.

Bounds are passed on as bounds.

The term IC50 denotes the concentration that inhibits the measured activity by half. Read a low IC50 as greater potency. Regarding `O=C(COc1ccc(C(=O)N2CC=C(c3c[nH]c4cccc(F)c34)CC2)cc1)NO`, the results for the IC50 in assay [1] and in assay [2] were 1490 nM and 1410 nM, respectively.
The corresponding values for `Cc1[nH]c2ccccc2c1C1=CCN(C(=O)c2ccc(OCC(=O)NO)cc2)CC1` are > 5000 nM and > 5000 nM.
Take `O=C(COc1ccc(CNC2CC=C(c3c[nH]c4ccc(F)cc34)CC2)c(F)c1)NO` (configuration not stated): the IC50 in assay [1] amounted to 179 nM; in assay [2], 261 nM; in assay [3], 1420 nM; in assay [4], 304 nM.
As for `O=C(COc1ccc(C(=O)NC2CC=C(c3c[nH]c4cccc(F)c34)CC2)cc1)NO` (configuration not stated), the IC50 in assay [1] and in assay [2] was > 5000 nM in each case.
With `O=C(COc1ccc(CNC2CC=C(c3c[nH]c4ccccc34)CC2)c(F)c1)NO` (configuration not stated), the half-maximal inhibitory concentration (IC50) in assay [1] came to 1150 nM; in assay [2], 436 nM; in assay [3], 1170 nM; in assay [4], 278 nM.
As to `O=C(COc1ccc(CNCCc2c[nH]c3ccccc23)cc1Cl)NO`, the IC50 in assay [2] is 1940 nM; in assay [3], 1080 nM.
The matching figures for `O=C(COc1ccc(CNCCn2cnc3ccccc32)c(F)c1)NO`: 410 nM and 539 nM.
Regarding `O=C(COc1ccc(CN2CC=C(c3c[nH]c4cccc(F)c34)CC2)cc1)NO`, the half-maximal inhibitory concentration (IC50) in assay [1] came to 2310 nM; in assay [2] it was 969 nM.
Regarding `Cc1ccc2[nH]cc(C3=CCN(Cc4ccc(OCC(=O)NO)cc4)CC3)c2c1`, the values for the 50% inhibitory concentration (IC50) in assay [1] and in assay [2] were 3960 nM and 632 nM, respectively.
On to `O=C(COc1ccc(CN2CC=C(c3c[nH]c4cccc(F)c34)CC2)c(F)c1)NO`, for which the half-inhibitory concentration (IC50) in assay [1] was determined as 5560 nM; in assay [2] it was 1220 nM.
For the compound `Cc1[nH]c2ccccc2c1C1=CCN(Cc2ccc(OCC(=O)NO)cc2)CC1`, the IC50 in assay [1] was 697 nM; in assay [2], 301 nM; in assay [3], 1590 nM; in assay [4], 615 nM.
On to `Cc1[nH]c2ccccc2c1C1=CCN(Cc2ccc(OCC(=O)NO)cc2F)CC1`, for which the values for the half-inhibitory concentration (IC50) in assay [1] and in assay [2] were 1600 nM and 1220 nM, respectively.
As for `Cc1[nH]c2ccccc2c1C1=CCC(NCc2ccc(OCC(=O)NO)cc2F)C(F)C1` (configuration not stated), the 50% inhibitory concentration (IC50) in assay [1] was 509 nM; in assay [2], 733 nM; in assay [3], 2310 nM; in assay [4], 501 nM.
As for `O=C(COc1ccc(CN2CC=C(c3c[nH]c4ccc(F)cc34)CC2)c(F)c1)NO`, the figures for the IC50 in assay [1] and in assay [2] were 3860 nM and > 5000 nM, respectively.
The matching figures for `Cc1ccc2[nH]cc(C3=CCC(NCc4ccc(OCC(=O)NO)cc4F)CC3)c2c1` (configuration not stated): 2780 nM and 445 nM.
Turning to `Cc1ccc2[nH]cc(C3=CCN(Cc4ccc(OCC(=O)NO)cc4F)CC3)c2c1`, the concentration for half-maximal inhibition (IC50) amounted to 1950 nM in assay [1] and 1450 nM in assay [2].
The corresponding values for `O=C(COc1ccc(C(=O)N2CC=C(c3c[nH]c4ccc(F)cc34)CC2)cc1)NO` are > 5000 nM and > 5000 nM.
For `Cc1[nH]c2ccccc2c1C1=CCC(NCc2ccc(OCC(=O)NO)cc2)CC1` (configuration not stated), the concentration for half-maximal inhibition (IC50) stood at 367 nM in assay [1], 184 nM in assay [2], 898 nM in assay [3] and 187 nM in assay [4].
With `COc1cc(OCC(=O)NO)ccc1CNCCn1cnc2ccccc21`, the IC50 in assay [2] and in assay [3] was > 10000 nM throughout.
For the compound `O=C(COc1ccc(CN2CC=C(c3c[nH]c4ccc(F)cc34)CC2)cc1)NO`, the half-inhibitory concentration (IC50) in assay [1] is 1110 nM; in assay [2] it was 949 nM.
As for `Cc1[nH]c2ccccc2c1C1=CCC(NC(=O)c2ccc(OCC(=O)NO)cc2)CC1` (configuration not stated), the concentration for half-maximal inhibition (IC50) in assay [1] and in assay [2] was > 5000 nM throughout.
In the case of `O=C(COc1ccc(CNCCc2c[nH]c3ccccc23)cc1)NO`, the concentration for half-maximal inhibition (IC50) worked out at 192 nM in assay [2] and 221 nM in assay [3].
As for `O=C(COc1cccc(CNCCc2c[nH]c3ccccc23)c1)NO`, the results for the IC50 in assay [2] and in assay [3] were 2610 nM and 2330 nM, respectively.
The matching figures for `O=C(COc1ccc(CNCCc2c[nH]c3ccccc23)cc1F)NO`: 162 nM and 155 nM.
For `Cc1[nH]c2cccc(F)c2c1C1=CCC(NCc2ccc(OCC(=O)NO)cc2F)CC1` (configuration not stated), the values for the IC50 in assay [2], in assay [3] and in assay [4] were 254 nM, 1180 nM and 244 nM, respectively.
Consider `COc1cc(OCC(=O)NO)ccc1CNCCc1c[nH]c2ccccc12`, for which the IC50 in assay [2] and in assay [3] was > 10000 nM in each case.
As for `O=C(COc1ccc(CNC2CC=C(c3c[nH]c4cccc(F)c34)CC2)c(F)c1)NO` (configuration not stated), the IC50 in assay [1] stood at 189 nM; in assay [2] it was 173 nM; in assay [3], 915 nM; in assay [4], 203 nM.
